Laboratory results taken from US8450266B2 (Ipsen Pharma S.A.S., priority 2008, dated 2013).
Where a SMILES comes first, the peptide text is derived from it. [ ]: non-standard residue; d: D form. The star is where a group is joined. X2 = CCCCCCN1C(=O)CC(*)C1=O; Decanoyl = CCCCCCCCCC(=O)*; Ac6c = NC1(C(=O)O)CCCCC1; Orn = NCCC[C@H](N)C(=O)O; X1 = CCCN1C(=O)CC(*)C1=O; Hexanoyl = CCCCCC(=O)*

Tests used:
[1] = Human plasma half-life assay (LC-MS); assay type: in vitro ADME; details: incubated at 37° C., read-out: Human Plasma T½ (converted)
Method: (§1) B. Human and Rat Plasma Half-Life Assay
(§2) 50 μl, was removed at various times, like at 0, 1, 2, 3, 4, 8, 24, 32, 48, 56, 72 hours, mixed with 5 μL formic acid and 150 μL acetonitrile in a microcentrifuge tube, vertexed, and centrifuged for 10 minutes at 10K rpm. The supernatant was transferred to an injection vial and analyzed by LC-MS. The LC-MS system consisted of an API4000 mass spectrometer with an ESI probe. Positive ion mode and full scan detection were used. HPLC separation was carried out on a Luna 3μ C8 (2), 2×30 mm column with a gradient from 90% A to 90% B in 10 minutes at a flow rate of 0.3 ml/min. Buffer A was 1% formic acid in water and buffer B was 1% formic acid acetonitrile.

[2] = Rat plasma half-life assay (LC-MS); assay type: in vitro ADME; details: incubated at 37° C., read-out: Rat Plasma T½ (converted)
Method: as §1, §2

SMILES | half-life at 0.1 mg/mL [1] | half-life at 0.1 mg/mL [2] | half-life at 0.1 mg/ml [1] | half-life at 0.1 mg/ml [2]
CCCN1C(=O)CC(SC[C@H](NC(=O)[C@H](CCCCN)NC(=O)[C@H](CCC(N)=O)NC(=O)[C@H](C)NC(=O)[C@H](CC(C)C)NC(=O)[C@H](CC(C)C)NC(=O)[C@H](Cc2c[nH]c3ccccc23)NC(=O)[C@H](CC(N)=O)NC(=O)[C@@H](NC(=O)[C@H](Cc2ccccc2)NC(=O)[C@H](CC(=O)O)NC(=O)[C@H](CCC(N)=O)NC(=O)[C@H](CCC(N)=O)NC(=O)[C@H](Cc2c[nH]cn2)NC(=O)[C@@H](NC(=O)[C@H](CCCCN)NC(=O)[C@H](CC(=O)O)NC(=O)[C@H](CCSC)NC(=O)[C@H](C)NC(=O)[C@@H](NC(=O)[C@H](CO)NC(=O)[C@H](Cc2ccc(O)cc2)NC(=O)[C@H](CC(=O)O)NC(=O)[C@H](CO)NC(=O)C2(NC(C)=O)CCCCC2)[C@@H](C)CC)[C@@H](C)CC)C(C)C)C(=O)N[C@@H](CCCCN)C(=O)N[C@@H](CCCCN)C(=O)N[C@@H](CC(N)=O)C(=O)N[C@@H](CC(=O)O)C(=O)N[C@@H](Cc2c[nH]c3ccccc23)C(=O)N[C@@H](CCCCN)C(=O)N[C@@H](Cc2c[nH]cn2)C(=O)N[C@@H](CC(N)=O)C(=O)N[C@H](C(=O)N[C@H](C(=O)N[C@@H](CCC(N)=O)C(=O)O)[C@@H](C)O)[C@@H](C)CC)C1=O (some centres unmarked) [Example 10, [Ac-A6c^7, Cys(Psu)^31]hGIP(7-42)-OH] (Ac-[Ac6c]SDYSIAMDKIHQQDFVNWLLAQKC(X1)KKNDWKHNITQ-OH) | 8 h | 2.6 h |  | 
CCCN1C(=O)CC(SC[C@H](NC(=O)[C@H](CCCCN)NC(=O)[C@H](CCC(N)=O)NC(=O)[C@H](C)NC(=O)[C@H](CC(C)C)NC(=O)[C@H](CC(C)C)NC(=O)[C@H](Cc2c[nH]c3ccccc23)NC(=O)[C@H](CC(N)=O)NC(=O)[C@@H](NC(=O)[C@H](Cc2ccccc2)NC(=O)[C@H](CC(=O)O)NC(=O)[C@H](CCC(N)=O)NC(=O)[C@H](CCC(N)=O)NC(=O)[C@H](Cc2c[nH]cn2)NC(=O)[C@@H](NC(=O)[C@H](CCCCN)NC(=O)[C@H](CC(=O)O)NC(=O)[C@H](CCSC)NC(=O)[C@H](C)NC(=O)[C@@H](NC(=O)[C@H](CO)NC(=O)[C@H](Cc2ccc(O)cc2)NC(=O)[C@H](CC(=O)O)NC(=O)[C@H](CO)NC(=O)C2(NC(C)=O)CCCCC2)[C@@H](C)CC)[C@@H](C)CC)C(C)C)C(=O)N[C@@H](CCCCN)C(=O)N[C@@H](CCCCN)C(=O)N[C@@H](CC(N)=O)C(N)=O)C1=O (some centres unmarked) [Example 28, (Ac-A6c^7, Cys(Psu)^31]hGIP(7-34)-NH2] | 8.8 h | 4.1 h |  | 
CCCCCCN1C(=O)CC(SC[C@H](NC(=O)[C@H](CCCCN)NC(=O)[C@H](CCC(N)=O)NC(=O)[C@H](C)NC(=O)[C@H](CC(C)C)NC(=O)[C@H](CC(C)C)NC(=O)[C@H](Cc2c[nH]c3ccccc23)NC(=O)[C@H](CC(N)=O)NC(=O)[C@@H](NC(=O)[C@H](Cc2ccccc2)NC(=O)[C@H](CC(=O)O)NC(=O)[C@H](CCC(N)=O)NC(=O)[C@H](CCC(N)=O)NC(=O)[C@H](Cc2c[nH]cn2)NC(=O)[C@@H](NC(=O)[C@H](CCCCN)NC(=O)[C@H](CC(=O)O)NC(=O)[C@H](CCSC)NC(=O)[C@H](C)NC(=O)[C@@H](NC(=O)[C@H](CO)NC(=O)[C@H](Cc2ccc(O)cc2)NC(=O)[C@H](CC(=O)O)NC(=O)[C@H](CO)NC(=O)C2(N)CCCCC2)[C@@H](C)CC)[C@@H](C)CC)C(C)C)C(=O)N[C@@H](CCCCN)C(=O)N[C@@H](CCCCN)C(=O)N[C@@H](CC(N)=O)C(=O)N[C@@H](CC(=O)O)C(=O)N[C@@H](Cc2c[nH]c3ccccc23)C(=O)N[C@@H](CCCCN)C(=O)N[C@@H](Cc2c[nH]cn2)C(=O)N[C@@H](CC(N)=O)C(=O)N[C@H](C(=O)N[C@H](C(=O)N[C@@H](CCC(N)=O)C(=O)O)[C@@H](C)O)[C@@H](C)CC)C1=O (some centres unmarked) [Example 23, [A6c^7, Cys(Hsu)^31]hGIP(7-42)-OH] (H-[Ac6c]SDYSIAMDKIHQQDFVNWLLAQKC(X2)KKNDWKHNITQ-OH) | 11.7 h | 5.3 h |  | 
CCCN1C(=O)CC(SC[C@H](NC(=O)[C@H](CC(=O)O)NC(=O)[C@H](CC(N)=O)NC(=O)[C@H](CCCCN)NC(=O)[C@H](CCCCN)NC(=O)CNC(=O)[C@H](CCCCN)NC(=O)[C@H](CCC(N)=O)NC(=O)[C@H](C)NC(=O)[C@H](CC(C)C)NC(=O)[C@H](CC(C)C)NC(=O)[C@H](Cc2c[nH]c3ccccc23)NC(=O)[C@H](CC(N)=O)NC(=O)[C@@H](NC(=O)[C@H](Cc2ccccc2)NC(=O)[C@H](CC(=O)O)NC(=O)[C@H](CCC(N)=O)NC(=O)[C@H](CCC(N)=O)NC(=O)[C@H](Cc2c[nH]cn2)NC(=O)[C@@H](NC(=O)[C@H](CCCCN)NC(=O)[C@H](CC(=O)O)NC(=O)[C@H](CCSC)NC(=O)[C@H](C)NC(=O)[C@@H](NC(=O)[C@H](CO)NC(=O)[C@H](Cc2ccc(O)cc2)NC(=O)[C@H](CC(=O)O)NC(=O)[C@H](CO)NC(=O)C2(NC(C)=O)CCCCC2)[C@@H](C)CC)[C@@H](C)CC)C(C)C)C(=O)N[C@@H](CCCCN)C(=O)N[C@@H](Cc2c[nH]cn2)C(=O)N[C@@H](CC(N)=O)C(=O)N[C@H](C(=O)N[C@H](C(=O)N[C@@H](CCC(N)=O)C(=O)O)[C@@H](C)O)[C@@H](C)CC)C1=O (some centres unmarked) [Example 5, [Ac-A6c^7, Cys(Psu)^36]hGIP(7-42)-OH] (Ac-[Ac6c]SDYSIAMDKIHQQDFVNWLLAQKGKKNDC(X1)KHNITQ-OH) | 7.8 h | 8.5 h |  | 
CC[C@H](C)[C@H](NC(=O)[C@H](CCCCN)NC(=O)[C@H](CC(=O)O)NC(=O)[C@H](CCSC)NC(=O)C(C)(C)NC(=O)[C@@H](NC(=O)[C@H](CO)NC(=O)[C@H](Cc1ccc(O)cc1)NC(=O)[C@H](CC(=O)O)NC(=O)[C@H](CO)NC(=O)[C@@H](NC(=O)[C@H](Cc1ccccc1)NC(=O)[C@@H](NC(=O)CNC(=O)[C@H](CCC(=O)O)NC(=O)CCc1ccc(O)cc1)[C@@H](C)O)[C@@H](C)CC)[C@@H](C)CC)C(=O)N[C@@H](Cc1c[nH]cn1)C(=O)N[C@@H](CCC(N)=O)C(=O)N[C@@H](CCC(N)=O)C(=O)N[C@@H](CC(=O)O)C(=O)N[C@@H](Cc1ccccc1)C(=O)N[C@H](C(=O)N[C@@H](CC(N)=O)C(=O)N[C@@H](Cc1c[nH]c2ccccc12)C(=O)N[C@@H](CC(C)C)C(=O)N[C@@H](CC(C)C)C(=O)N[C@@H](C)C(=O)N[C@@H](CCC(N)=O)C(=O)N[C@@H](CCCCN)C(=O)NCC(=O)N[C@@H](CCCCN)C(=O)N[C@@H](CCCCN)C(=O)N[C@@H](CC(N)=O)C(=O)N[C@@H](CC(=O)O)C(=O)N[C@@H](Cc1c[nH]c2ccccc12)C(=O)N[C@@H](CCCCN)C(=O)N[C@@H](Cc1c[nH]cn1)C(=O)N[C@@H](CC(N)=O)C(=O)N[C@H](C(=O)N[C@H](C(=O)N[C@@H](CCC(N)=O)C(=O)O)[C@@H](C)O)[C@@H](C)CC)C(C)C [Example 44, (4Hppa^2, Aib^13)hGIP(2-42)-OH)] | 48.8 h | 9.9 h |  | 
CCCCCCCCCC(=O)NCCC[C@H](NC(=O)[C@H](CCCCN)NC(=O)[C@H](CCCCN)NC(=O)CNC(=O)[C@H](CCCCN)NC(=O)[C@H](CCC(N)=O)NC(=O)[C@H](C)NC(=O)[C@H](CC(C)C)NC(=O)[C@H](CC(C)C)NC(=O)[C@H](Cc1c[nH]c2ccccc12)NC(=O)[C@H](CC(N)=O)NC(=O)[C@@H](NC(=O)[C@H](Cc1ccccc1)NC(=O)[C@H](CC(=O)O)NC(=O)[C@H](CCC(N)=O)NC(=O)[C@H](CCC(N)=O)NC(=O)[C@H](Cc1c[nH]cn1)NC(=O)[C@@H](NC(=O)[C@H](CCCCN)NC(=O)[C@H](CC(=O)O)NC(=O)[C@H](CCSC)NC(=O)[C@H](C)NC(=O)[C@@H](NC(=O)[C@H](CO)NC(=O)[C@H](Cc1ccc(O)cc1)NC(=O)[C@H](CC(=O)O)NC(=O)[C@H](CO)NC(=O)C1(NC(C)=O)CCCCC1)[C@@H](C)CC)[C@@H](C)CC)C(C)C)C(=O)N[C@@H](CC(=O)O)C(=O)N[C@@H](Cc1c[nH]c2ccccc12)C(=O)N[C@@H](CCCCN)C(=O)N[C@@H](Cc1c[nH]cn1)C(=O)N[C@@H](CC(N)=O)C(=O)N[C@H](C(=O)N[C@H](C(=O)N[C@@H](CCC(N)=O)C(=O)O)[C@@H](C)O)[C@@H](C)CC [Example 19, [Ac-A6c^7, Orn^34(N-C(O)-(CH2)8-CH3)]hGIP(7-42)-OH] (Ac-[Ac6c]SDYSIAMDKIHQQDFVNWLLAQKGKK[Orn](Decanoyl)DWKHNITQ-OH) |  |  | 18.9 h | 10.7 h
CCCCCC(=O)NCCC[C@H](NC(=O)[C@H](CCCCN)NC(=O)[C@H](CCC(N)=O)NC(=O)[C@H](C)NC(=O)[C@H](CC(C)C)NC(=O)[C@H](CC(C)C)NC(=O)[C@H](Cc1c[nH]c2ccccc12)NC(=O)[C@H](CC(N)=O)NC(=O)[C@@H](NC(=O)[C@H](Cc1ccccc1)NC(=O)[C@H](CC(=O)O)NC(=O)[C@H](CCC(N)=O)NC(=O)[C@H](CCC(N)=O)NC(=O)[C@H](Cc1c[nH]cn1)NC(=O)[C@@H](NC(=O)[C@H](CCCCN)NC(=O)[C@H](CC(=O)O)NC(=O)[C@H](CCSC)NC(=O)[C@H](C)NC(=O)[C@@H](NC(=O)[C@H](CO)NC(=O)[C@H](Cc1ccc(O)cc1)NC(=O)[C@H](CC(=O)O)NC(=O)[C@H](CO)NC(=O)C1(NC(=O)CCCCC)CCCCC1)[C@@H](C)CC)[C@@H](C)CC)C(C)C)C(=O)N[C@@H](CCCCN)C(=O)N[C@@H](CCCCN)C(=O)N[C@@H](CC(N)=O)C(=O)N[C@@H](CC(=O)O)C(=O)N[C@@H](Cc1c[nH]c2ccccc12)C(=O)N[C@@H](CCCCN)C(=O)N[C@@H](Cc1c[nH]cn1)C(=O)N[C@@H](CC(N)=O)C(=O)N[C@H](C(=O)N[C@H](C(=O)N[C@@H](CCC(N)=O)C(=O)O)[C@@H](C)O)[C@@H](C)CC [Example 18, [CH3-(CH2)4-C(O)-A6c^7, Orn^31(N-C(O)-(CH2)4-CH3)]hGIP(7-42)-OH] (Hexanoyl-[Ac6c]SDYSIAMDKIHQQDFVNWLLAQK[Orn](Hexanoyl)KKNDWKHNITQ-OH) |  |  | 13.8 h | 6.3 h
